Laboratory results: patent US20240408169A1 (priority 2023, published 2024)
*1 amine or outer side, *2 acyl side, *3 side chain or, on linkers, in order; H or OH if unused. Where a SMILES comes first, the peptide text is derived from it. Bridges are numbered along the chain shown (N, C = ends). [ ]: non-standard residue; d: D form. The star is where a group is joined. X39 = CN1CCC(n2cc(-c3ccc(-c4ccc(Cl)cc4C[C@@H](C(=O)[*:2])N(C)[*:1])cc3)cn2)CC1; X73 = CN([C@@H](Cc1cc(Cl)ccc1-c1ccc(N2CCN(Cc3cnn(C)c3)CC2)cc1)C(=O)[*:2])[*:1]; X106 = CN([C@@H](Cc1cc(Cl)ccc1-c1ccc(N2CCN(Cc3ccccn3)CC2)cc1)C(=O)[*:2])[*:1]; X34 = CN1CC(N2CCN(c3ccc(-c4ccc(Cl)cc4C[C@@H](C(=O)[*:2])N(C)[*:1])cc3)CC2)C1; NMePhe(2-(4-MorPh),5-Cl) = CN[C@@H](Cc1cc(Cl)ccc1-c1ccc(N2CCOCC2)cc1)C(=O)O; X78 = CN1CCN(C2(c3ccc(-c4ccc(Cl)cc4C[C@@H](C(=O)[*:2])N(C)[*:1])cc3)CC2)CC1; X85 = CN([C@@H](Cc1cc(Cl)ccc1-c1ccc([C@]23CCOC[C@H]2C3)nc1)C(=O)[*:2])[*:1]; X45 = CN1CCC(F)(c2ccc(-c3ccc(Cl)cc3C[C@@H](C(=O)[*:2])N(C)[*:1])cc2)CC1; X103 = CN1CCC(Oc2ccc(-c3ccc(Cl)cc3C[C@@H](C(=O)[*:2])N(C)[*:1])cc2)CC1; X36 = Cc1cc(-c2ccc(Cl)cc2C[C@@H](C(=O)[*:2])N(C)[*:1])ccc1N1CCN(C)CC1; X8 = CN1CCN(C2CC=C(c3ccc(Cl)cc3C[C@@H](C(=O)[*:2])N(C)[*:1])CC2)CC1; X91 = COc1cc(-c2ccc(Cl)cc2C[C@@H](C(=O)[*:2])N(C)[*:1])ccc1N1CCOCC1; X6 = CN([C@@H](Cc1cc(Cl)ccc1-c1ccc(-c2cccnc2)cc1)C(=O)[*:2])[*:1]; NMehhhLys(Me) = CN([C@@H](CCCCCCCN(C)[*:3])C(=O)[*:2])[*:1]; cBuCO(3,3-F2-1-CF3) = O=C(C1(C(F)(F)F)CC(F)(F)C1)*; Pro(trans-4-F) = O=C(O)[C@@H]1C[C@@H](F)CN1; Gly(cPr) = N[C@H](C(=O)O)C1CC1; X65 = CC1(C(=O)*)CC(F)(F)C1; X77 = CC(F)(C(=O)*)C(F)(F)F

Experiments:
CyclinA2/CDK2 = target: T1, CyclinA2/CDK2 (Homo sapiens, UniProt P20248); assay: Fluorescence Polarization (FP) competitive binding assay, Cyclin A2/Cdk2; conditions: 8 nM Cyclin A2/Cdk2, 2 nM FAM probe; average of 2-3 independent experiments; read-out: Cyclin A FP IC50;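 note: plates equilibrated two hours at room temperature before polarization reading, IC50 fitted from eight-concentration compound titration curves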
T1 construct: purchased CRELUX Protein Services

CyclinB1/CDK1 = target: T2, CyclinB1/CDK1 (Homo sapiens, UniProt P14635); assay: Fluorescence Polarization (FP) competitive binding assay, Cyclin B1/Cdk1; conditions: 10 nM Cyclin B1/Cdk1, 2 nM FAM probe; average of 2-3 independent experiments; read-out: Cyclin B FP IC50;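 note: fluorescence polarization read after equilibration at room temperature, with IC50 taken from serially diluted dose-response curves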
T2 construct: purchased Eurofins, discovery 14-450

CyclinE1/CDK2 = target: T3, CyclinE1/CDK2 (Homo sapiens, UniProt P24864); assay: Fluorescence Polarization (FP) competitive binding assay, Cyclin E1/Cdk2; conditions: 10 nM Cyclin E1/Cdk2, 2 nM FAM probe; average of 2-3 independent experiments; read-out: Cyclin E FP IC50;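 note: readings taken after two-hour equilibration at room temperature in HEPES buffer with NaCl, DTT, NP-40 and BSA, IC50 fitted from eight-concentration serial dilution series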
T3 construct: purchased Eurofins, discovery 14-475

WI-38 cells = assay: MTT proliferation assay, WI-38; type: cell-based; conditions: 3 days compound exposure, 1:3 serial dilution starting at 10 μM;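 note: Eight- or ten-point dilution series, with exposure length chosen to span about three to four cell doublings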
NCI-H1048 cells = assay: MTT proliferation assay, NCI-H1048; type: cell-based; conditions: 5 days compound exposure, 1:3 serial dilution starting at 10 μM;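 note: Dose-response in 96-well plates over 8 or 10 concentration points, with exposure spanning 3-4 cell doublings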
OVCAR3 cells = assay: MTT proliferation assay, OVCAR3; type: cell-based; conditions: 5 days compound exposure, 1:3 serial dilution starting at 10 μM;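 note: compound given as an 8- or 10-point series, one day after plating, with exposure covering roughly 3-4 cell doublings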

SMILES | IC50 (CyclinA2/CDK2) [nM] | IC50 (CyclinB1/CDK1) [nM] | IC50 (CyclinE1/CDK2) [nM] | GI50 (WI-38 cells) [nM] | GI50 (NCI-H1048 cells) [nM] | GI50 (OVCAR3 cells) [nM]
CC(C)C[C@@H]1NC(=O)[C@@H](N(C)C(=O)[C@@H](NC(=O)[C@@H]2C[C@@H](F)CN2C(=O)C2(C)CC(F)(F)C2)C2CC2)CCCCCCCN(C)C(=O)[C@H](Cc2cc(Cl)ccc2-c2ccc(N3CCOCC3)cc2)N(C)C1=O [Example 365] (X65-[Pro(trans-4-F)][Gly(cPr)][NMehhhLys(Me)]L[NMePhe(2-(4-MorPh),5-Cl)]; lactam 3-C) | 20 | 20 | 1170 | 3180 | 10 | 10
COc1cc(-c2ccc(Cl)cc2C[C@H]2C(=O)N(C)CCCCCCC[C@H](N(C)C(=O)[C@@H](NC(=O)[C@@H]3C[C@@H](F)CN3C(=O)C3(C(F)(F)F)CC(F)(F)C3)C3CC3)C(=O)N[C@@H](CC(C)C)C(=O)N2C)ccc1N1CCOCC1 [Example 367] ({cBuCO(3,3-F2-1-CF3)}-[Pro(trans-4-F)][Gly(cPr)][NMehhhLys(Me)]L[X91]; lactam 3-C) | 20 | 20 | 1100 | 14700 | 20 | 10
CC(C)C[C@@H]1NC(=O)[C@@H](N(C)C(=O)[C@@H](NC(=O)[C@@H]2C[C@@H](F)CN2C(=O)C2(C(F)(F)F)CC(F)(F)C2)C2CC2)CCCCCCCN(C)C(=O)[C@H](Cc2cc(Cl)ccc2-c2ccc(N3CCN(Cc4ccccn4)CC3)cc2)N(C)C1=O [Example 368] ({cBuCO(3,3-F2-1-CF3)}-[Pro(trans-4-F)][Gly(cPr)][NMehhhLys(Me)]L[X106]; lactam 3-C) | 20 | 20 | 480 | 15200 | 10 | 10
CC(C)C[C@@H]1NC(=O)[C@@H](N(C)C(=O)[C@@H](NC(=O)[C@@H]2C[C@@H](F)CN2C(=O)C2(C(F)(F)F)CC(F)(F)C2)C2CC2)CCCCCCCN(C)C(=O)[C@H](Cc2cc(Cl)ccc2-c2ccc([C@]34CCOC[C@H]3C4)nc2)N(C)C1=O [Example 369] ({cBuCO(3,3-F2-1-CF3)}-[Pro(trans-4-F)][Gly(cPr)][NMehhhLys(Me)]L[X85]; lactam 3-C) | 20 | 20 | 1490 | 4540 | 20 | 20
CC(C)C[C@@H]1NC(=O)[C@@H](N(C)C(=O)[C@@H](NC(=O)[C@@H]2C[C@@H](F)CN2C(=O)C2(C(F)(F)F)CC(F)(F)C2)C2CC2)CCCCCCCN(C)C(=O)[C@H](Cc2cc(Cl)ccc2-c2ccc(C3(F)CCN(C)CC3)cc2)N(C)C1=O [Example 370] ({cBuCO(3,3-F2-1-CF3)}-[Pro(trans-4-F)][Gly(cPr)][NMehhhLys(Me)]L[X45]; lactam 3-C) | 20 | 20 | 780 | 1210 | 20 | 20
CC(C)C[C@@H]1NC(=O)[C@@H](N(C)C(=O)[C@@H](NC(=O)[C@@H]2C[C@@H](F)CN2C(=O)C2(C(F)(F)F)CC(F)(F)C2)C2CC2)CCCCCCCN(C)C(=O)[C@H](Cc2cc(Cl)ccc2-c2ccc(OC3CCN(C)CC3)cc2)N(C)C1=O [Example 371] ({cBuCO(3,3-F2-1-CF3)}-[Pro(trans-4-F)][Gly(cPr)][NMehhhLys(Me)]L[X103]; lactam 3-C) | 20 | 20 | 920 | 1440 | 10 | 10
CC(C)C[C@@H]1NC(=O)[C@@H](N(C)C(=O)[C@@H](NC(=O)[C@@H]2C[C@@H](F)CN2C(=O)C2(C(F)(F)F)CC(F)(F)C2)C2CC2)CCCCCCCN(C)C(=O)[C@H](Cc2cc(Cl)ccc2-c2ccc(N3CCN(Cc4cnn(C)c4)CC3)cc2)N(C)C1=O [Example 372] ({cBuCO(3,3-F2-1-CF3)}-[Pro(trans-4-F)][Gly(cPr)][NMehhhLys(Me)]L[X73]; lactam 3-C) | 20 | 20 | 430 | 2840 | 10 | 10
Cc1cc(-c2ccc(Cl)cc2C[C@H]2C(=O)N(C)CCCCCCC[C@H](N(C)C(=O)[C@@H](NC(=O)[C@@H]3C[C@@H](F)CN3C(=O)C3(C(F)(F)F)CC(F)(F)C3)C3CC3)C(=O)N[C@@H](CC(C)C)C(=O)N2C)ccc1N1CCN(C)CC1 [Example 374] ({cBuCO(3,3-F2-1-CF3)}-[Pro(trans-4-F)][Gly(cPr)][NMehhhLys(Me)]L[X36]; lactam 3-C) | 20 | 20 | 870 | 2220 | 10 | 10
CC(C)C[C@@H]1NC(=O)[C@@H](N(C)C(=O)[C@@H](NC(=O)[C@@H]2C[C@@H](F)CN2C(=O)C2(C(F)(F)F)CC(F)(F)C2)C2CC2)CCCCCCCN(C)C(=O)[C@H](Cc2cc(Cl)ccc2-c2ccc(-c3cccnc3)cc2)N(C)C1=O [Example 375] ({cBuCO(3,3-F2-1-CF3)}-[Pro(trans-4-F)][Gly(cPr)][NMehhhLys(Me)]L[X6]; lactam 3-C) | 20 | 20 | 1730 | 16800 | 10 | 20
CC(C)C[C@@H]1NC(=O)[C@@H](N(C)C(=O)[C@@H](NC(=O)[C@@H]2C[C@@H](F)CN2C(=O)C2(C(F)(F)F)CC(F)(F)C2)C2CC2)CCCCCCCN(C)C(=O)[C@H](Cc2cc(Cl)ccc2C2=CCC(N3CCN(C)CC3)CC2)N(C)C1=O (stereo partly drawn) [Example 376] ({cBuCO(3,3-F2-1-CF3)}-[Pro(trans-4-F)][Gly(cPr)][NMehhhLys(Me)]L[X8]; lactam 3-C) | 20 | 20 | 1330 | 3450 | 10 | 10
CC(C)C[C@@H]1NC(=O)[C@@H](N(C)C(=O)[C@@H](NC(=O)[C@@H]2C[C@@H](F)CN2C(=O)C(C)(F)C(F)(F)F)C2CC2)CCCCCCCN(C)C(=O)[C@H](Cc2cc(Cl)ccc2-c2ccc(N3CCOCC3)cc2)N(C)C1=O (stereo partly drawn) [Example 377] (X77-[Pro(trans-4-F)][Gly(cPr)][NMehhhLys(Me)]L[NMePhe(2-(4-MorPh),5-Cl)]; lactam 3-C) | 20 | 20 | 340 | 8160 | 10 | 10
CC(C)C[C@@H]1NC(=O)[C@@H](N(C)C(=O)[C@@H](NC(=O)[C@@H]2C[C@@H](F)CN2C(=O)C2(C(F)(F)F)CC(F)(F)C2)C2CC2)CCCCCCCN(C)C(=O)[C@H](Cc2cc(Cl)ccc2-c2ccc(-c3cnn(C4CCN(C)CC4)c3)cc2)N(C)C1=O [Example 380] ({cBuCO(3,3-F2-1-CF3)}-[Pro(trans-4-F)][Gly(cPr)][NMehhhLys(Me)]L[X39]; lactam 3-C) | 30 | 20 | 2170 | 1170 | 20 | 30
CC(C)C[C@@H]1NC(=O)[C@@H](N(C)C(=O)[C@@H](NC(=O)[C@@H]2C[C@@H](F)CN2C(=O)C2(C(F)(F)F)CC(F)(F)C2)C2CC2)CCCCCCCN(C)C(=O)[C@H](Cc2cc(Cl)ccc2-c2ccc(C3(N4CCN(C)CC4)CC3)cc2)N(C)C1=O [Example 381] ({cBuCO(3,3-F2-1-CF3)}-[Pro(trans-4-F)][Gly(cPr)][NMehhhLys(Me)]L[X78]; lactam 3-C) | 20 | 20 | 1310 | 2300 | 20 | 40
CC(C)C[C@@H]1NC(=O)[C@@H](N(C)C(=O)[C@@H](NC(=O)[C@@H]2C[C@@H](F)CN2C(=O)C2(C(F)(F)F)CC(F)(F)C2)C2CC2)CCCCCCCN(C)C(=O)[C@H](Cc2cc(Cl)ccc2-c2ccc(N3CCN(C4CN(C)C4)CC3)cc2)N(C)C1=O [Example 383, (2S,4R)—N—((S)-2-(((3S,6S,9S)-3-((4-chloro-4′-(4-(1-methylazetidin-3-yl)piperazin-1-yl)-[1,1′-biphenyl]-2-yl)methyl)-6-isobutyl-1,4-dimethyl-2,5,8-trioxo-1,4,7-triazacyclohexadecan-9-yl)(methyl)amino)-1-cyclopropyl-2-oxoethyl)-1-(3,3-difluoro-1-(trifluoromethyl)cyclobutane-1-carbonyl)-4-fluoropyrrolidine-2-carboxamide] ({cBuCO(3,3-F2-1-CF3)}-[Pro(trans-4-F)][Gly(cPr)][NMehhhLys(Me)]L[X34]; lactam 3-C) | 20 | 20 | 530 | 2700 | 10 | 10
